Converted amounts (≈) assume the structure as drawn. Read-outs that look alike come from different tables or passages of the source. Residues, ends and D or L forms follow the SMILES beside them.
Legend:
[1] = in vitro; settings: human, human plasma
Experimental: After incubation for 0, 2, 4, 6, 8 and 10 h at 37°C, an aliquot of 10 μl sample was taken for protein precipitation with an equal volume of 4% H3PO4, the mixture was vortex-mixed for 2 min and then centrifuged at 13000 rpm for 15 min at 4°C. 3 μl of supernatant was analyzed using reverse-phase high performance liquid chromatography (RP-HPLC), and the remaining peptide was calculated through the integrated peak area.

[2] = tested on: human mature red blood cells; settings: 1.32–169.01 μM, 30 min, 37°C, absorbance 540 nm, 3 independent experiments
Experimental: (§1) Hemolysis of testing sample was calculated as the percentage of Triton X-100-induced hemolysis.
as §1

[3] = tested on: C57BL/6 mice; test: In vivo acute toxicity assay; parameters: species or system mouse; settings: single dose 20 mg/kg and 40 mg/kg, intravenous (tail vein), male C57BL/6, n = 10, recorded 12-72 h
Experimental: Male C57BL/6 mice aged 6–8 weeks were randomly divided into 2 groups with 10 mice in each group. […] Then the death of mice was recorded at 12 h, 24 h, 36 h, 48 h, 60 h and 72 h, respectively.
[picture] Supplementary Figure 1. […] Male C57BL/6 mice aged 6–8 weeks were randomly divided into 2 groups (n = 10). […] Then the death of mice was recorded at 12 h, 24 h, 36 h, 48 h, 60 h and 72 h respectively.

[4] = tested on: S. aureus (ATCC6538, MRSA-Z, SA15192, SA115775); settings: 4.23 mM in 100% human plasma, 0-10 h, 37°C, disk diffusion, zone of inhibition, two independent experiments
Experimental: Residual antibacterial activity for each incubation time point was evaluated by disk diffusion assay. In brief, bacteria were seeded on nutrient agar plates, 6 mm paper disks were placed on top and 10 μl aliquots of the plasma-peptide mixture was added to the paper disks. After 24 h incubation, the inhibitory zones against S. aureus (ATCC6538, MRSA-Z, SA15192, SA115775) were measured and recorded.
Data represent mean ± SD of two independent experiments.

[5] = tested on: HEK293T cells; settings: up to 169.01 μM, 24 h, CCK8, absorbance 450 nm; 3 independent experiments
[6] = tested on: Staphylococcus aureus (SA115775); test: microbe, parasite or virus in culture; type: cell-based; settings: 16 h
From the text: (§2) The standard strain of Staphylococcus aureus (S. aureus, ATCC6538), Escherichia coli (E. coli, ATCC25922), Pseudomonas aeruginosa (P. aeruginosa, ATCC9027), Acinetobacter baumannii (A. baumannii, ATCC19606) and Candida albicans (C. albicans, ATCC/0331) used in this experiment was purchased from the microbial strain collection center of Guangdong Province. The methicillin resistant strain of Staphylococcus aureus (MRSA, SAZ) and clinically isolated antibiotic-resistance strains (SA115775 and SA15192) were clinically isolated from the First Affiliated Hospital of Kunming Medical University. The strains of C. albicans were cultured in 1/3 YM Medium (HB0297-1) + 2/3 RPMI 1640 medium (10-040-CVR, Corning), and other bacterial strains were cultured in Luria-Bertani (LB: 2 g tryptone, 1 g yeast extract, 2 g sodium chloride and 200 ml deionized water) broth.
(§3) Briefly, bacteria strains were diluted and adjusted to the concentration of 2 × 10^5 CFU/ml using RPMI 1640 medium. Samples were prepared as a stock solution in saline, and then diluted to a series of concentrations. 100 μl bacterial suspension and 100 μl samples at the indicated concentration were put together in 96-well plates and incubated at 37°C for 16 h. Finally, an absorbance at 600 nm was measured by a microplate reader to estimate bacterial growth. The MIC was defined as the lowest concentration where the bacterial growth could not be detected completely.

[7] = tested on: methicillin-resistant Staphylococcus aureus (MRSA-Z); test: microbe, parasite or virus in culture; type: cell-based; settings: 16 h
From the text: as §2, §3

[8] = tested on: Staphylococcus aureus (ATCC6538); test: microbe, parasite or virus in culture; type: cell-based
From the text: as §2, §3

[9] = tested on: Staphylococcus aureus (SA15192); test: microbe, parasite or virus in culture; type: cell-based; settings: 16 h
From the text: as §2, §3

[10] = tested on: Candida albicans (ATCC/0331); type: cell-based; settings: C. albicans ATCC/0331; broth dilution, 37°C, 16 h
From the text: as §2, §3

[11] = tested on: Escherichia coli (ATCC25922); type: cell-based; settings: E. coli ATCC25922; broth dilution, 37°C, 16 h
From the text: as §2, §3

[12] = tested on: S. aureus (ATCC6538); test: Staphylococcus aureus intraperitoneal infection model; type: in vivo, C57BL/6 mice; settings: CFU 4 h after administration, n = 6
Experimental: S. aureus (ATCC6538) and methicillin resistant strain of Staphylococcus aureus (MRSA, SAZ) were resuspended by saline with the concentration of 1 × 10^9 CFU/ml. […] 2 h later, samples were intraperitoneally injected with the concentration indicated. After 4 h of administration, mice were sacrificed, blood was collected via retro-orbital bleeding and lungs were harvested and homogenized in 1 ml of saline with a hand tissue grinder. 10-fold serial dilutions of the homogenates and blood were made in pyrogen-free NaCl and equal volumes were plated on LB agar plates and incubated at 37°C. CFU were counted after 24 h.
After 4 h of administration, mice were sacrificed, blood (A,C) and lung (B,D) were collected for the measurement of bacterial loads. Data represent mean ± SD values of six independent experiments. *p < 0.05, **p < 0.01, ***p < 0.001.

[13] = tested on: S. aureus (ATCC6538); test: Bacterial killing kinetic assay; type: cell-based, Staphylococcus aureus; settings: 1 ×, 5 × or 10 × MIC; RPMI 1640 with 10% FBS, 37°C; not completely killed in the time given
Experimental: (§4) The bacterial killing kinetic assay was performed according to the previous method with minor modifications ([Wei et al., 2015]). S. aureus (ATCC6538) and methicillin resistant strain of Staphylococcus aureus (MRSA, SAZ) were washed three times with saline and then resuspended with RPMI 1640 medium containing 10% FBS at the concentration of 2 × 10^5 CFU/ml. […] Ten microliter aliquots were extracted at each time point and diluted with fresh broth for 100 times, 100 μl of the dilution was seeded on agar plates. After incubation at 37°C for 24 h, the viable colonies were determined.
(§5) Ten microliter aliquots were extracted at each time point and diluted with fresh broth for 100 times, 100 μl of the dilution was seeded on agar plates. After incubation at 37°C for 24 h, the viable colonies were determined for the killing kinetic analysis. Data represent mean ± SD values of three independent experiments. *p < 0.05, **p < 0.01, ***p < 0.001.

[14] = tested on: methicillin-resistant S. aureus (MRSA-Z); test: Bacterial killing kinetic assay; type: cell-based, Staphylococcus aureus; settings: 1 ×, 5 × and 10 × MIC; RPMI 1640 with 10% FBS, 37°C
Experimental: as §4, §5

[15] = tested on: Pseudomonas aeruginosa (ATCC9027); test: MIC, broth dilution; type: cell-based; settings: P. aeruginosa ATCC9027, 37°C, 16 h
From the text: as §2
as §3, with “100 μl bacterial suspension and 100 μl samples at the indicated concentration were put together in 96-well plates and incubated at 37°C for 16 h.” left out

[16] = tested on: Acinetobacter baumannii (ATCC19606); test: MIC, broth dilution; type: cell-based; settings: A. baumannii ATCC19606, 37°C, 16 h
From the text: as §2
as §3, with “100 μl bacterial suspension and 100 μl samples at the indicated concentration were put together in 96-well plates and incubated at 37°C for 16 h.” left out

In the case of `C[C@H](NC(=O)CNC(=O)[C@H](Cc1c[nH]c2ccccc12)NC(=O)CN)C(=O)N[C@@H](CCCCN)C(=O)N[C@@H](CCCNC(=N)N)C(=O)N[C@@H](Cc1c[nH]c2ccccc12)C(=O)NCC(=O)N[C@@H](CCCCN)C(=O)N[C@@H](CCCNC(=N)N)C(=O)NCC(=O)N[C@@H](Cc1c[nH]c2ccccc12)C(=O)N[C@@H](CCCCN)C(=O)N[C@@H](Cc1c[nH]c2ccccc12)C(=O)N[C@@H](CCCCN)C(=O)N[C@@H](CCCNC(=N)N)C(=O)N[C@@H](Cc1c[nH]cn1)C(=O)N[C@@H](Cc1c[nH]c2ccccc12)C(N)=O` [GW18] (H-GWGAKRWGKRGWKWKRHW-NH2), the remaining at 10 h, 4.23 μM [1] is reported as 57.6%, the Hemolytic activity [2] is reported as “no obvious hemolytic activity” and the “Acute toxicity (death of mice)” value [3] is reported as “no acute toxicity”. For the same molecule, the “Antibacterial activity against S. aureus after incubation in human plasma” value [4] was “did not significantly affect”, the “Cytotoxicity on HEK293T” value [5] was “no obvious cytotoxicity” and the MIC ([6]; clinical isolate SA115775, broth dilution, RPMI 1640, 2 × 10^5 CFU/ml, 37°C, read-out: MIC) was 1.32 µM (≈ 3.12 µg/mL). The MIC ([7]; MRSA-Z, broth dilution, RPMI 1640, 2 × 10^5 CFU/ml, 37°C, absorbance 600 nm, read-out: MIC) was 1.32 µM (≈ 3.12 µg/mL), the MIC ([8]; S. aureus ATCC6538, broth dilution, RPMI 1640, 2 × 10^5 CFU/ml, 37°C, 16 h, absorbance 600 nm, read-out: MIC) was 1.32 µM (≈ 3.12 µg/mL) and the MIC ([9]; clinical isolate SA15192, broth dilution, RPMI 1640, 2 × 10^5 CFU/ml, 37°C, read-out: MIC) was 1.32 µM (≈ 3.12 µg/mL). For the same molecule, the MIC [10] was over 20 µM and the MIC [11] was 5.28 µM (≈ 12.5 µg/mL).
For `COc1cccc(OC)c1C(=O)N[C@@H]1C(=O)N2[C@@H]1SC(C)(C)[C@@H]2C(=O)O` [Methicillin, methicillin], the MIC ([6]; Staphylococcus aureus, clinical isolate SA115775, broth dilution, RPMI 1640, 2 × 10^5 CFU/ml, 37°C, read-out: MIC) was 62.1 µM (≈ 23.6 µg/mL), the MIC ([7]; Staphylococcus aureus, MRSA-Z, broth dilution, RPMI 1640, 2 × 10^5 CFU/ml, 37°C, absorbance 600 nm, read-out: MIC) was over 124 µM and the MIC ([8]; Staphylococcus aureus, S. aureus ATCC6538, broth dilution, RPMI 1640, 2 × 10^5 CFU/ml, 37°C, 16 h, absorbance 600 nm, read-out: MIC) was 1.94 µM (≈ 0.738 µg/mL). For the same molecule, the MIC ([9]; Staphylococcus aureus, clinical isolate SA15192, broth dilution, RPMI 1640, 2 × 10^5 CFU/ml, 37°C, read-out: MIC) was 15.5 µM (≈ 5.91 µg/mL).
With `CN[C@H](CC(C)C)C(=O)N[C@H]1C(=O)N[C@@H](CC(N)=O)C(=O)N[C@H]2C(=O)N[C@H]3C(=O)N[C@H](C(=O)N[C@H](C(=O)O)c4cc(O)cc(O)c4-c4cc3ccc4O)[C@H](O)c3ccc(c(Cl)c3)Oc3cc2cc(c3O[C@@H]2O[C@H](CO)[C@@H](O)[C@H](O)[C@H]2O[C@H]2C[C@](C)(N)[C@H](O)[C@H](C)O2)Oc2ccc(cc2Cl)[C@H]1O` [Vancomycin, vancomycin] the “Dissemination of S. aureus (ATCC6538) from the peritoneal cavity to the blood” value ([12]; GW18 2, 4, 8 mg/kg or vancomycin 2, 4 mg/kg ip 2 h after infection (2 × 10^8 CFU/mouse ip)) was “significantly suppressed”, the “Dissemination of S. aureus (ATCC6538) from the peritoneal cavity to the lung” value ([12]; GW18 2, 4, 8 mg/kg or vancomycin 2, 4 mg/kg ip 2 h after infection) was “significantly suppressed” and the “Time to completely kill the S. aureus” value [13] was over 240 min. The “Time to completely kill the MRSA-Z” value [14] was 240 min, the MIC ([6]; Staphylococcus aureus) was 1.08 µM (≈ 1.57 µg/mL) and the MIC ([7]; Staphylococcus aureus, MRSA) was 0.54 µM (≈ 0.783 µg/mL). It also gave an MIC ([8]; Staphylococcus aureus, ATCC6538, 16 h) of 1.08 µM (≈ 1.57 µg/mL) and an MIC ([9]; Staphylococcus aureus) of 2.16 µM (≈ 3.13 µg/mL).
With colistin the MIC [15] was 0.56 µM, the MIC [16] was 0.56 µM and the MIC [11] was 0.56 µM.

Source: article PMC9589885, “A designed antimicrobial peptide with potential ability against methicillin resistant Staphylococcus aureus” (Frontiers in Microbiology, 2022)
